Results: US20230303553A1, “CDK6/DYRK2 DUAL-TARGET INHIBITOR, AND PREPARATION METHOD THEREFOR AND USE THEREOF” (JIANGSU TASLY DIYI PHARMACEUTICAL CO., LTD., priority 2021, published 2023)
Read-outs that look alike come from different tables or passages of the source. Values belong to the molecule of their own block, whether it stands above or below them.

Assays:
[1] = tested on: liver cancer (HepG2) cell line; test: MTT cancer cell proliferation, HepG2; type: cell-based; details: Homo sapiens, read-out: IC50 proliferation HepG2
[2] = tested on: human glioma (U251) cell line; test: MTT cancer cell proliferation, U251; type: cell-based; details: read-out: IC50 proliferation U251
[3] = tested on: ICR mice; test: Acute toxicity in mice, single gavage; type: in vivo
[4] = Pharmacokinetics in SD rats; type: in vivo; details: for half-life: read-out: t ½ (converted)
[5] = molecular target: DYRK2 kinase (Homo sapiens (Human), UniProt Q92630); test: DYRK2 kinase activity, 33P-ATP / Woodtide substrate; type: biochemical
DYRK2 kinase, sequence (Q92630 whole entry): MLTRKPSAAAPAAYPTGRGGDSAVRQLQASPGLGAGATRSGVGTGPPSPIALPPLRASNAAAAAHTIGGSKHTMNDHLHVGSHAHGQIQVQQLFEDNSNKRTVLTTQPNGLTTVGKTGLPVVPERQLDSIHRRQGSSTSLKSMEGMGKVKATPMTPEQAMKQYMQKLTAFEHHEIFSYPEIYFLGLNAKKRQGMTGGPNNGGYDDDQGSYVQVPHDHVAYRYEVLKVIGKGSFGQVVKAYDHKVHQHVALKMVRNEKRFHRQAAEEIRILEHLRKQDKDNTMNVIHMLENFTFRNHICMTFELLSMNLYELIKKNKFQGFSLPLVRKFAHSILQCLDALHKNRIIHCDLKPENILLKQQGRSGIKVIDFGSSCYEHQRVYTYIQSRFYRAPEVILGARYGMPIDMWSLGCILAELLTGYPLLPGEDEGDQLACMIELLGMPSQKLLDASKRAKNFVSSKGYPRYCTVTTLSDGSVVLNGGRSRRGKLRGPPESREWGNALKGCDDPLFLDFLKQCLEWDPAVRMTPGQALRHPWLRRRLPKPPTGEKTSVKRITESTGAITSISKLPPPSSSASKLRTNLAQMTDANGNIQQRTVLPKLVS

[6] = molecular target: CDK6 kinase (Homo sapiens (Human), UniProt Q00534); test: CDK6 kinase activity, Lance Ultra TR-FRET; type: biochemical
CDK6 kinase, sequence (Q00534 whole entry): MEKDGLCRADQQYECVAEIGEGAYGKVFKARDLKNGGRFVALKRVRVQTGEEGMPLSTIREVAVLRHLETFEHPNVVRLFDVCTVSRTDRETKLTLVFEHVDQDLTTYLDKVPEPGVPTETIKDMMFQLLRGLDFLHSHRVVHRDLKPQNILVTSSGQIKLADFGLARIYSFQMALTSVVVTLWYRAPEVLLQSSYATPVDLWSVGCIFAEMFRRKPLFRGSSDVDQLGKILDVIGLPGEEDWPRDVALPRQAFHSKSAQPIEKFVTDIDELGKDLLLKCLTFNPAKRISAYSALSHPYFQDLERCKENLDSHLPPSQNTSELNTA
CDK6 kinase, sequence (P24385 whole entry partner): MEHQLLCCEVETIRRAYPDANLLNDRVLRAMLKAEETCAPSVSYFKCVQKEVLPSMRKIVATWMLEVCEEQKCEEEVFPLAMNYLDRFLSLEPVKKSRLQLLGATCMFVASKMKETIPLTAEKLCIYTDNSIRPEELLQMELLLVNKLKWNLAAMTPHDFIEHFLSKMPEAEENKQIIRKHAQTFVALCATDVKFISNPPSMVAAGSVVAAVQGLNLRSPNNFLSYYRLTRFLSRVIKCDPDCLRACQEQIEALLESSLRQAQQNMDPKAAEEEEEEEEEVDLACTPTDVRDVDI

[7] = tested on: gastric cancer (MGC-803) cell line; test: MTT cancer cell proliferation, MGC-803; type: cell-based; details: Homo sapiens, read-out: IC50 proliferation MGC-803
[8] = tested on: xenografts of human lung cancer A549; test: Human lung cancer A549 xenografts in nude mice; type: in vivo, BALB/c nude mice; details: for relative tumor proliferation rate T/C(%) / tumor growth inhibition rate: A549 xenograft, 21 days
[9] = tested on: non-small cell lung cancer (NCI-H1299) cell line; test: MTT cancer cell proliferation, NCI-H1299; type: cell-based; details: Homo sapiens, read-out: IC50 proliferation NCI-H1299
[10] = tested on: xenografts of human prostate cancer Du-145; test: Human prostate cancer Du-145 xenografts in nude mice; type: in vivo, BALB/c nude mice; details: for inhibition on tumor growth, in words: FIG. 3
[11] = tested on: multiple myeloma (RPMI8226) cell line; test: MTT cancer cell proliferation, RPMI8226; type: cell-based; details: Homo sapiens, read-out: IC50 proliferation RPMI8226
[12] = tested on: ovarian cancer (SK-OV-3) cell line; test: MTT cancer cell proliferation, SK-OV-3; type: cell-based; details: Homo sapiens, read-out: IC50 proliferation SK-OV-3
[13] = tested on: leukemia (K562) cell line; test: MTT cancer cell proliferation, K562; type: cell-based; details: Homo sapiens, read-out: IC50 proliferation K-562
[14] = tested on: xenografts of human prostate cancer PC3; test: Human prostate cancer PC-3 xenografts in nude mice; type: in vivo, BALB/c nude mice; details: for relative tumor proliferation rate T/C(%) / tumor growth inhibition rate: PC-3 xenograft, 28 days
[15] = tested on: colon cancer (HT-29) cell line; test: MTT cancer cell proliferation, HT-29; type: cell-based; details: Homo sapiens, read-out: IC50 proliferation HT-29
[16] = tested on: human breast cancer (MCF-7); test: MTT cancer cell proliferation, MCF-7; type: cell-based; details: read-out: IC50 proliferation MCF-7
[17] = tested on: triple negative breast cancer (MDA-MB-231) cell line; test: MTT cancer cell proliferation, MDA-MB-231; type: cell-based; details: Homo sapiens
[18] = tested on: prostate cancer (Du-145) cell line; test: MTT cancer cell proliferation, Du-145; type: cell-based; details: Homo sapiens, read-out: IC50 proliferation Du-145
[19] = tested on: prostate cancer (PC-3) cell line; test: MTT cancer cell proliferation, PC-3; type: cell-based; details: Homo sapiens, read-out: IC50 proliferation PC-3
[20] = tested on: lung cancer (A-549); test: MTT cancer cell proliferation, A-549; type: cell-based; details: Homo sapiens, read-out: IC50 proliferation A-549
[21] = tested on: pancreatic cancer (Panc-1) cell line; test: MTT cancer cell proliferation, Panc-1; type: cell-based; details: Homo sapiens, read-out: IC50 proliferation Panc-1
[22] = rat, plasma, iv tail vein 1 mg/kg
[23] = rat, plasma, po gavage 10 mg/kg
[24] = 150 mg/kg intragastric once every 2 days
[25] = 300 mg/kg intragastric once every 2 days
[26] = Du-145 xenograft, 200 mg/kg intragastric once every day
[27] = 100 mg/kg intragastric once every day
[28] = 200 mg/kg intragastric once every day

Structure (SMILES): CCN1CCN(C(=O)c2ccc(Nc3ncc(F)c(-c4ccc5nc(N(C)C)sc5c4)n3)nc2)CC1 [Example 31, (6-((4-(2-(dimethylamino)benzothiazole-6-yl)-5-fluoropyrimidine-2-yl)amino)pyridine-3-yl)(4-ethylpiperazine-1-yl)ketone]
IC50 ([1]; HepG2, 72 h): 1.54 µM
IC50 ([2]; U-251, 72 h): 2.15 µM
Organ toxicity by HE staining ([3]; acute toxicity assay, FIG. 2): no significant toxicity to heart, liver, spleen, lung, kidney and other major organs
Toxicity symptoms / abnormality ([3]; single gavage 2500, 5000 or 10000 mg/kg): no abnormality was found within 12 h after administration in all groups
Death of mice ([3]; single gavage 2500, 5000 or 10000 mg/kg, 14 days observation): No animals died within 24h of dosing and no animals died after day 14 of dosing
Pharmacokinetic assessment in words [4]: good metabolism in rats, good absorption and exposure and high bioavailability
F (bioavailability) ([4]; po 10 mg/kg vs iv 1 mg/kg): 55.78%
Cl ([4]; po gavage 10 mg/kg): 1.198 L/h/kg
AUC(0-inf) [4, 22]: 1.5 µg·h/mL
Cmax [4, 22]: 0.974 µg/mL
Tmax [4, 22]: 0.033 h
clearance [4, 22]: 0.669 L/h/kg
half-life [4, 22]: 2.99 h
AUC(0-inf) [4, 23]: 8.38 µg·h/mL
Cmax [4, 23]: 0.674 µg/mL
Tmax [4, 23]: 4 h
half-life [4, 23]: 5.08 h
IC50 [5]: 0.009 µM
IC50 [6]: 0.018 µM
IC50 ([7]; MGC-803, 72 h): 2.02 µM
effect on growth of xenografts, in words ([8]; A549 xenograft in nude mice): significant inhibitory effect
relative tumor proliferation rate T/C(%) [8, 24]: 44.8%
tumor growth inhibition rate [8, 24]: 55.2%
relative tumor proliferation rate T/C(%) [8, 25]: 35.9%
tumor growth inhibition rate [8, 25]: 64.1%
IC50 ([9]; NCI-H1299, 72 h): 2.13 µM
effect on growth of xenografts, in words ([10]; Du-145 xenograft in nude mice): significant inhibitory effect
inhibition on tumor growth, in words ([10]; Du-145 xenograft, 100 mg/kg intragastric once every day, groups compared): better inhibition on tumor growth than the positive drug Palbociclib
day on which tumor volume started to be reduced [10, 26]: 31 days
inhibition on tumor growth, in words [10, 26]: significantly inhibited tumor growth
IC50 ([11]; RPMI-8226, 72 h): 1.08 µM
IC50 ([12]; SK-OV-3, 72 h): 1.78 µM
IC50 ([13]; K562, 72 h): 0.917 µM
effect on growth of xenografts, in words ([14]; PC-3 xenograft in nude mice): significant inhibitory effect
relative tumor proliferation rate T/C(%) [14, 27]: 35.7%
tumor growth inhibition rate [14, 27]: 64.3%
relative tumor proliferation rate T/C(%) [14, 28]: 23.4%
tumor growth inhibition rate [14, 28]: 76.6%
IC50 ([15]; HT-29, 72 h): 1.87 µM
IC50 ([16]; MCF7, 72 h): 1.89 µM
IC50 ([17]; MDA-MB-231, 72 h, read-out: IC50 proliferation MDA-MB-231): 1.75 µM
IC50 ([18]; DU-145, 72 h): 3.3 µM
IC50 ([19]; PC-3, 72 h): 1.06 µM
IC50 ([20]; A549, 72 h): 1.64 µM
IC50 ([21]; PANC-1, 72 h): 1.93 µM

IC50 ([1]; HepG2, MTT, 72 hours): 4.14 µM
IC50 ([2]; U-251, MTT, 72 hours): 4.35 µM
IC50 ([7]; MGC-803, MTT, 72 hours): 4.45 µM
IC50 ([9]; NCI-H1299, MTT, 72 hours): 4.2 µM
IC50 ([11]; RPMI-8226, MTT, 72 hours): 2.31 µM
IC50 ([12]; SK-OV-3, MTT, 72 hours): 4.01 µM
IC50 ([13]; K562, MTT, 72 hours): 2.02 µM
IC50 ([15]; HT-29, MTT, 72 hours): 3.84 µM
IC50 ([16]; MCF7, MTT, 72 hours): 4.49 µM
IC50 ([17]; MDA-MB-231, read-out: IC50 proliferation MDA-MB-231, MTT, 72 hours): 4.37 µM
IC50 ([18]; DU-145, MTT, 72 hours): 4.57 µM
IC50 ([19]; PC-3, MTT, 72 hours): 4.57 µM
IC50 ([20]; A549, MTT, 72 hours): 4.23 µM
IC50 ([21]; PANC-1, MTT, 72 hours): 4.16 µM
Structure (SMILES): CC(=O)c1c(C)c2cnc(Nc3ccc(N4CCNCC4)cn3)nc2n(C2CCCC2)c1=O [Palbociclib, reference compound]
relative tumor proliferation rate T/C(%) [8, 24]: 39.6%
tumor growth inhibition rate [8, 24]: 60.4%
relative tumor proliferation rate T/C(%) [14, 27]: 35.5%
tumor growth inhibition rate [14, 27]: 64.5%
